Source: patent publication US12240862B2, “Inhibitors of peptidylarginine deiminases” (Gilead Sciences, Inc., priority 2020, dated 2025)

Target: T1, human PAD4 (Homo sapiens, UniProt Q9UM07)
T1 construct: human PAD4 (NM_012387), A2P663, was PCR amplified; His-SUMO (N, cleaved yes); made in house; host or cells: E. coli BL21(DE3)
Assay: In vitro PAD4 BAEE biochemical assay
Conditions: human PAD4, BAEE substrate; 5 nM PAD4, 2 mM calcium chloride, 3 mM BAEE; geometric mean of multiple experiments
How it was run: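 Ammonia release from BAEE deimination monitored by o-phthalaldehyde amine coupling (1 h, 25 °C) after EDTA stop. Final conditions: 5 nM tag-free recombinant human PAD4 (E. coli), 2 mM CaCl2, 3 mM BAEE, pH 7.6 MOPS with DTT; 30 min compound preincubation, then 2 h reaction at 25 °C.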

T1 sequence (Q9UM07 2-663): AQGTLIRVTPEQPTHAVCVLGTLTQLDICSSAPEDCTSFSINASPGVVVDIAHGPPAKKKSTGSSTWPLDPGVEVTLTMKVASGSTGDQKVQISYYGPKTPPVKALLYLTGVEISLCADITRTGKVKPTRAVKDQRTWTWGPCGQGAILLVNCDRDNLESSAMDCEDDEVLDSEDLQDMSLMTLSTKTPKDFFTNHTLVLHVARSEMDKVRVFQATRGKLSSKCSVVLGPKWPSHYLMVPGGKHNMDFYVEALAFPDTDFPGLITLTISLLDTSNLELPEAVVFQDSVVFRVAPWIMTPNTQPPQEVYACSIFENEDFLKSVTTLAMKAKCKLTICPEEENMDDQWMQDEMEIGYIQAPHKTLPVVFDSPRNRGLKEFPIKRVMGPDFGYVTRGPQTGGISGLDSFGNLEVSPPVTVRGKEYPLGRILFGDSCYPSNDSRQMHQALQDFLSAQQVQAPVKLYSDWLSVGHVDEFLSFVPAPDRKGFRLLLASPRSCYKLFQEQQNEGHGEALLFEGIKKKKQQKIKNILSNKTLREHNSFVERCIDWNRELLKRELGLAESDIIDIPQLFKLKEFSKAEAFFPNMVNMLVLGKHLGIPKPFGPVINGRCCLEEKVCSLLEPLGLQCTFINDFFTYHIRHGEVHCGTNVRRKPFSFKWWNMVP

SMILES	IC50 [nM]
COc1cc(C(=O)N2CCC[C@@H](N)C2)cc2nc(-c3cc4cc(F)c(Cl)cc4n3CC3CC3)c(C)n12 [Example 590, [(3~{R})-3-aminopiperidin-1-yl]-[2-[6-chloro-1-(cyclopropylmethyl)-5-fluoroindol-2-yl]-5-methoxy-3-methylimidazo[1,2-a]pyridin-7-yl]methanone]	9820
CCc1ccc2cc(-c3nc4cc(C(=O)N5[C@H]6CC[C@@H]5[C@H](N)C6)cc(OC)n4c3C)n(CC(F)F)c2n1 [Example 502, [(1~{R},2~{R},4~{S})-2-amino-7-azabicyclo [2.2.1]heptan-7-yl]-[2-[1-(2,2-difluoroethyl)-6-ethylpyrrolo[2,3-b]pyridin-2-yl]-5-methoxy-3-methylimidazo [1,2-a]pyridin-7-yl] methanone]	258
CCc1ccc2cc(-c3nc4cc(C(=O)N5[C@H]6CC[C@@H]5[C@H](N)C6)cc(OC)n4c3C)n(CCC(C)(C)C#N)c2n1 [Example 508, 4-[2-[7-[(1~{R},2~{R}, 4~{S})-2-amino-7-azabicyclo[2.2.1]heptane-7-carbonyl]-5-methoxy-3-methylimidazo[1,2-a]pyridin-2-yl]-6-ethylpyrrolo [2,3-b]pyridin-1-yl]-2,2-dimethylbutanenitrile]	277
COc1cc(C(=O)N2[C@H]3CC[C@@H]2[C@H](N)C3)cc2nc(-c3cc4ccc([C@@H](C)N5CCOCC5=O)nc4n3CC3CC3)c(C)n12 [Example 274, 4-[(1~{R})-1-[2-[7-[(1~{R},2~{R},4~{S})-2-amino-7-azabicyclo[2.2.1]heptane-7-carbonyl]-5-methoxy-3-methylimidazo [1,2-a]pyridin-2-yl]-1-(cyclopropylmethyl)pyrrolo [2,3-b]pyridin-6-yl]ethyl]morpholin-3-one]	252
COc1cc(C(=O)N2[C@H]3CC[C@@H]2[C@H](N)C3)cc2nc(-c3cc4ccc([C@@H](C)NC(=O)c5ccccc5C)nc4n3CC3CC3)c(C)n12 [Example 121, ~{N}-[(1~{R})-1-[2-[7-[(1~{R},2~{R},4~{S})-2-amino-7-azabicyclo[2.2.1]heptane-7-carbonyl]-5-methoxy-3-methylimidazo [1,2-a]pyridin-2-yl]-1-(cyclopropylmethyl)pyrrolo [2,3-b]pyridin-6-yl]ethyl]-2-methylbenzamide]	108
CCc1ccc2cc(-c3nc4cc(C(=O)N5[C@H]6CC[C@@H]5[C@H](N)C6)cc(OC)n4c3C)n(CCCO)c2n1 [Example 499, [(1~{R},2~{R},4~{S})-2-amino-7-azabicyclo [2.2.1]heptan-7-yl]-[2-[6-ethyl-1-(3-hydroxypropyl)pyrrolo[2,3-b]pyridin-2-yl]-5-methoxy-3-methylimidazo[1,2-a]pyridin-7-yl]methanone]	481
COc1cc(C(=O)N2[C@H]3CC[C@@H]2[C@H](N)C3)cc2nc(-c3cc4ccc(C(C)C#N)nc4n3CC3CC3)c(C)n12 (stereo partly drawn) [Example 568, 2-[2-[7-[(1~{R},2~{R}, 4~{S})-2-amino-7-azabicyclo[2.2.1]heptane-7-carbonyl]-5-methoxy-3-methylimidazo[1,2-a]pyridin-2-yl]-1-(cyclopropylmethyl)pyrrolo [2,3-b]pyridin-6-yl] propanenitrile]	133

Second part, the compound after the results:

IC50 [nM]	SMILES
107	COc1cc(C(=O)N2[C@H]3CC[C@@H]2[C@H](N)C3)cc2nc(-c3cc4ccc([C@@H](C)NC(=O)C5(C(F)F)CC5)nc4n3CC3CC3)c(C)n12 [Example 137, ~{N}-[(1~{R})-1-[2-[7-[(1~{R},2~{R},4~{S})-2-amino-7-azabicyclo[2.2.1]heptane-7-carbonyl]-5-methoxy-3-methylimidazo [1,2-a]pyridin-2-yl]-1-(cyclopropylmethyl)pyrrolo [2,3-b]pyridin-6-yl]ethyl]-1-(difluoromethyl) cyclopropane-1-carboxamide]
68.5	COc1cc(C(=O)N2[C@H]3CC[C@@H]2[C@H](N)C3)cc2nc(-c3cc4ccc([C@@H](C)NC(=O)N5CC(F)(F)C5)nc4n3CC3CC3)c(C)n12 [Example 232, N—((R)-1-(2-(7-((1R,2R,4S)-2-amino-7-azabicyclo[2.2.1]heptane-7-carbonyl)-5-methoxy-3-methylimidazo[1,2-a]pyridin-2-yl)-1-(cyclopropylmethyl)-1H-pyrrolo[2,3-b]pyridin-6-yl)ethyl)-3,3-difluoroazetidine-1-carboxamide]
90.2	COc1cc(C(=O)N2C[C@H](N)CCN2C)cc2nc(-c3cc4ccc([C@@H](C)NC(=O)c5ccccc5)nc4n3CC3CC3)c(C)n12 [Example 614, N—((R)-1-(2-(7-((R)-5-amino-2-methylhexahydropyridazine-1-carbonyl)-5-methoxy-3-methylimidazo[1,2-a]pyridin-2-yl)-1-(cyclopropylmethyl)-1H-pyrrolo[2,3-b]pyridin-6-yl)ethyl)benzamide]
56.3	COc1cc(C(=O)N2CCC[C@@H](N)C2)cc2nc(-c3cc4ccc([C@@H](C)NC(=O)C5(CO)CC5)nc4n3CC3CC3)c(C)n12 [Example 129, ~{N}-[(1~{R})-1-[2-[7-[(3~{R})-3-aminopiperidine-1-carbonyl]-5-methoxy-3-methylimidazo [1,2-a]pyridin-2-yl]-1-(cyclopropylmethyl)pyrrolo [2,3-b]pyridin-6-yl]ethyl]-1-(hydroxymethyl) cyclopropane-1-carboxamide]
98.3	COc1cc(C(=O)N2[C@H]3CC[C@@H]2[C@H](N)C3)cc2nc(-c3cc4ccc([C@@H](C)NC(=O)C(C)(C)OC)nc4n3CC3CC3)c(C)n12 [Example 172, ~{N}-[(1~{R})-1-[2-[7-[(1~{R},2~{R},4~{S})-2-amino-7-azabicyclo[2.2.1]heptane-7-carbonyl]-5-methoxy-3-methylimidazo [1,2-a]pyridin-2-yl]-1-(cyclopropylmethyl)pyrrolo [2,3-b]pyridin-6-yl]ethyl]-2-methoxy-2-methylpropanamide]
43	COc1cc(C(=O)N2[C@H]3CC[C@@H]2[C@H](N)C3)cc2nc(-c3cc4ccc([C@@H](C)NC(=O)[C@@H](C)O)nc4n3CC3CC3)c(C)n12 [Example 91, (2~{R})-~{N}-[(1~{R})-1-[2-[7-[(1~{R},2~{R},4~{S})-2-amino-7-azabicyclo[2.2.1]heptane-7-carbonyl]-5-methoxy-3-methylimidazo [1,2-a]pyridin-2-yl]-1-(cyclopropylmethyl)pyrrolo [2,3-b]pyridin-6-yl]ethyl]-2-hydroxypropanamide]
28.7	COc1cc(C(=O)N2[C@H]3CC[C@@H]2[C@H](N)C3)cc2nc(-c3cc4ccc([C@@H](C)NC(=O)[C@H]5C[C@@](C)(O)C5)nc4n3CC3CC3)c(C)n12 [Example 54, ~{N}-[(1~{R})-1-[2-[7-[(1~{R},2~{R}, 4~{S})-2-amino-7-azabicyclo[2.2.1]heptane-7-carbonyl]-5-methoxy-3-methylimidazo[1,2-a]pyridin-2-yl]-1-(cyclopropylmethyl)pyrrolo[2,3-b]pyridin-6-yl]ethyl]-3-hydroxy-3-methylcyclobutane-1-carboxamide]
45.5	COc1cc(C(=O)N2[C@H]3CC[C@@H]2[C@H](N)C3)cc2nc(-c3cc4ccc([C@@H](C)NC(=O)C(C)(C)C(=O)O)nc4n3CC3CC3)c(C)n12 [Example 155, 3-[[(1~{R})-1-[2-[7-[(1~{R},2~{R},4~{S})-2-amino-7-azabicyclo[2.2.1]heptane-7-carbonyl]-5-methoxy-3-methylimidazo [1,2-a]pyridin-2-yl]-1-(cyclopropylmethyl)pyrrolo [2,3-b]pyridin-6-yl]ethyl]amino]-2,2-dimethyl-3-oxopropanoic acid]
